Results reported in ChEMBL document CHEMBL1135124, “Novel bicyclic oxazolone derivatives as anti-angiogenic agents” (Bioorg Med Chem Lett, 2002).

What was measured:
[1] = species on record: Gallus gallus; experiment: Anti-angiogenic activity was assessed by inhibition of the vascular growth in the chick embryo chorioallantoic membrane (CAM assay) at 125 nM; assay type: functional, tissue-based
[2] = test system: L1210; experiment: Inhibitory activity against proliferation of murine leukemia (L1210) cells; assay type: functional, cell-based; conditions: Mus musculus
[3] = test system: A-431; experiment: Inhibitory activity against proliferation of human epidermoid carcinoma (A431) cells; assay type: functional, cell-based

SMILES | inhibition [1] [%] | IC50 [2] [µM] | IC50 [3] [µM]
CCCCCCC[C@H]1O[C@@H]2OC(=O)N(C(=O)CCl)[C@@H]2CC1=O | 87 | 96 | 79
CCCCCC1OC1[C@@]1(C)O[C@@H]2OC(=O)N(C(=O)CCl)[C@@H]2CC1=O (stereo partly drawn) | 58 | 193 | 116
CCCCCC#C[C@@]1(C)O[C@@H]2OC(=O)N(C(=O)CCl)[C@@H]2CC1=O | 70 | 31 | 47
COC#C[C@@]1(C)O[C@@H]2OC(=O)N(C(=O)CCl)[C@@H]2CC1=O | 60 | 74 | 64
CCCCCC1OC1[C@@]1(C)O[C@@H]2OC(=O)N(C(=O)CCl)[C@@H]2C[C@@]12CO2 (stereo partly drawn) | – | 89 | 93
C[C@]1(C#CCCCCc2ccccc2)O[C@@H]2OC(=O)N(C(=O)CCl)[C@@H]2CC1=O | 60 | 27 | 56
CCCCCC#C[C@@]1(C)O[C@@H]2OC(=O)N(C(=O)CCl)[C@@H]2C[C@@H]1O | 40 | > 100 | 52
CCCCCC#C[C@@]1(C)O[C@@H]2OC(=O)N(C(=O)CCl)[C@@H]2C[C@H]1O | 25 | > 100 | 75
CCCCCC#C[C@]1(C)O[C@@H]2OC(=O)N(C(=O)CCl)[C@@H]2CC1=O | 50 | 32 | 5
CO[C@@H]1[C@H](OC(=O)/C=C/C=C/C=C/C=C/C(=O)O)CC[C@]2(CO2)[C@H]1[C@@]1(C)O[C@@H]1CC=C(C)C [FUMAGILLIN] | 85 | 8 | 5
CCCCCC1OC1[C@@]1(C)O[C@@H]2OC(=O)N(C(=O)CCl)[C@@H]2C[C@]12CO2 (stereo partly drawn) | 19 | 22 | 33
CCCCCCC[C@@]1(C)O[C@@H]2OC(=O)N(C(=O)CCl)[C@@H]2CC1=O | 60 | 28 | 78
CCCCC/C=C/[C@@]1(C)O[C@@H]2OC(=O)N(C(=O)CCl)[C@@H]2CC1=O | 50 | 81 | 81
